The results in this text go back to PubChem BioAssay (NCI).

Test systems include A549 NSCLC; HCC-2998 colon; HCT-116 colon; HCT-15 colon; HOP-92 NSCLC; KM12 colon; LOX IMVI melanoma; NCI-H23 lung; NCI-H460 lung; NCI-H522 lung; SF-268 CNS; SK-MEL-28 melanoma; SK-OV-3 ovarian; SW-620 colon; U251 CNS; UO-31 renal; HOP-62 NSCLC; M14 melanoma; MALME-3M melanoma; OVCAR-5 ovarian.
Holding throughout (test): growth of human tumour cells (NCI), 48 h

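Assay format: 96-well plates, 48-hour exposure. TGI is the concentration that stops growth completely.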

Take `CCOC(=O)C1(CO)CSCCSC1`: the TGI with A549 NSCLC, in the assay with HCC-2998 colon, in the assay with HCT-116 colon, with HCT-15 colon, in the assay on HOP-92 NSCLC and in the assay on KM12 colon was more than 100 µM each time. Moreover, the TGI with LOX IMVI melanoma, in the assay with NCI-H23 lung, in the assay on NCI-H460 lung, with NCI-H522 lung, in the assay on SF-268 CNS and with SK-MEL-28 melanoma was more than 100 µM throughout. Moreover, the TGI in the assay with SK-OV-3 ovarian, in the assay on SW-620 colon, with U251 CNS and in the assay on UO-31 renal was more than 100 µM each time.
For the molecule `CC(C)=CCc1c(O)cc(O)c2c1OC(c1ccc(O)cc1)C(O)C2=O` (stereo unspecified), the TGI is 80.8 µM with A549 NSCLC; 56.3 µM with HCC-2998 colon; more than 100 µM with HCT-116 colon; 55.7 µM in the assay with HCT-15 colon; 36.3 µM in the assay on HOP-62 NSCLC; 39.7 µM in the assay on HOP-92 NSCLC. For the same molecule, the TGI in the assay on KM12 colon was 58.9 µM; in the assay on LOX IMVI melanoma, 35.7 µM; with M14 melanoma it was 57.3 µM; in the assay with MALME-3M melanoma, 70.4 µM; in the assay with NCI-H23 lung, 45.8 µM; in the assay with NCI-H460 lung it was 77.3 µM. For the same molecule, the TGI with NCI-H522 lung was 42 µM; with OVCAR-5 ovarian, 61.1 µM; in the assay on SF-268 CNS, more than 100 µM; with SK-MEL-28 melanoma, 50.7 µM; in the assay on SK-OV-3 ovarian, more than 100 µM; in the assay with SW-620 colon, more than 100 µM. Further, the results for the TGI in the assay with U251 CNS and with UO-31 renal were 74.5 µM and 90.4 µM, respectively.
For `CC(=O)OC1C=C(C=O)C(O)(C=O)C2(C)CCCC(C)(C)C12` (stereo unspecified), the TGI in the assay on A549 NSCLC came to 13.6 µM; with HCC-2998 colon, 5.75 µM; in the assay on HCT-116 colon, 3.92 µM; with HCT-15 colon, 1.7 µM; with HOP-62 NSCLC it was 14.6 µM; in the assay with HOP-92 NSCLC, 2.98 µM. Moreover, the TGI in the assay with KM12 colon was 5.14 µM; in the assay with LOX IMVI melanoma, 2.93 µM; in the assay on MALME-3M melanoma, 2.33 µM; in the assay with NCI-H23 lung, 4.92 µM; with NCI-H460 lung, 4.21 µM; in the assay with NCI-H522 lung, 1.16 µM. Also, the TGI in the assay with OVCAR-5 ovarian was determined as 8.16 µM; with SF-268 CNS, 5.35 µM; with SK-MEL-28 melanoma, 3.42 µM; in the assay on SK-OV-3 ovarian, 8.68 µM; in the assay on SW-620 colon, 0.953 µM; in the assay on U251 CNS, 7.39 µM. The molecule also yielded a TGI in the assay on UO-31 renal of 5.66 µM.
For `CCC1CN2CCc3cc(OC)c(OC)cc3C2CC1CC1c2cc(OC)c(OC)cc2CCN1C(=O)C(N)Cc1ccccc1` (stereo unspecified), the TGI amounted to 7.85 µM in the assay on A549 NSCLC; 5.66 µM with HCC-2998 colon; 1.29 µM in the assay on HCT-116 colon; 10.9 µM in the assay with HCT-15 colon; 7.78 µM with HOP-62 NSCLC; 6.41 µM with HOP-92 NSCLC. For the same molecule, the TGI in the assay with KM12 colon turned out to be 10.2 µM; with LOX IMVI melanoma, 10.9 µM; in the assay on M14 melanoma, 2.19 µM; in the assay with MALME-3M melanoma, 6.46 µM; with NCI-H23 lung it was 7.64 µM; in the assay on NCI-H460 lung, 9.23 µM. In addition, the TGI with NCI-H522 lung is 1.73 µM; with OVCAR-5 ovarian, 9.55 µM; in the assay with SF-268 CNS, 13.7 µM; in the assay with SK-MEL-28 melanoma, 10.3 µM; in the assay with SK-OV-3 ovarian, 17.8 µM; in the assay with SW-620 colon it was 10.9 µM. The TGI is 5.97 µM in the assay with U251 CNS and 5.85 µM in the assay with UO-31 renal.
For `CCOC(=O)/C=C/CC(C)(C)COC(C)=O`, the TGI in the assay on A549 NSCLC, in the assay with HCC-2998 colon, with HCT-116 colon, in the assay on HCT-15 colon, with KM12 colon and in the assay with LOX IMVI melanoma was more than 10 µM in each case. Also, the TGI with M14 melanoma, in the assay with NCI-H23 lung, in the assay with NCI-H460 lung, in the assay on NCI-H522 lung, in the assay with OVCAR-5 ovarian and in the assay on SF-268 CNS was more than 10 µM throughout. For the same molecule, the TGI in the assay with SK-MEL-28 melanoma, in the assay on SK-OV-3 ovarian, in the assay with SW-620 colon and in the assay on UO-31 renal was more than 10 µM throughout.
Turning to `NC(=O)NC1NC(=O)NC1=O` (stereo unspecified), the TGI in the assay on A549 NSCLC, with HCC-2998 colon, in the assay on HCT-116 colon, in the assay with HCT-15 colon, in the assay on HOP-62 NSCLC and in the assay on HOP-92 NSCLC was more than 100 µM throughout. Besides, the TGI with KM12 colon, in the assay with LOX IMVI melanoma, with M14 melanoma, in the assay on MALME-3M melanoma, in the assay on NCI-H23 lung and in the assay on NCI-H460 lung was more than 100 µM in each case. Moreover, the TGI in the assay on NCI-H522 lung, with OVCAR-5 ovarian, in the assay on SF-268 CNS, in the assay on SK-MEL-28 melanoma, in the assay with SK-OV-3 ovarian and in the assay with SW-620 colon was more than 100 µM throughout. Besides, the TGI in the assay on U251 CNS and with UO-31 renal was more than 100 µM each time.
As to `Cc1[nH]c(=O)[nH]c(=O)c1/C=C/C(=O)NC(CO)CC(C)C` (stereo unspecified), the TGI was more than 375 µM in the assay on A549 NSCLC; more than 375 µM in the assay with HCC-2998 colon; more than 375 µM in the assay with HCT-116 colon; more than 375 µM with HCT-15 colon; more than 375 µM in the assay on HOP-62 NSCLC; more than 343 µM in the assay on HOP-92 NSCLC. Besides, the TGI was more than 375 µM in the assay with KM12 colon; more than 375 µM in the assay on LOX IMVI melanoma; more than 375 µM with MALME-3M melanoma; more than 375 µM in the assay on NCI-H23 lung; more than 187 µM in the assay on NCI-H460 lung; more than 375 µM with NCI-H522 lung. The TGI in the assay on OVCAR-5 ovarian, in the assay on SF-268 CNS, in the assay with SK-MEL-28 melanoma, with SK-OV-3 ovarian, with SW-620 colon and in the assay on U251 CNS was more than 375 µM in each case. In the assay with UO-31 renal, this molecule displayed a TGI of more than 375 µM.
As for `CCN(CC)C(=O)c1cc(OC(C)C)ccc1-c1c(C)cc(OC(C)C)c(OC)c1OC`, the TGI in the assay with A549 NSCLC, in the assay on HCC-2998 colon, with HCT-116 colon, in the assay with HCT-15 colon, with HOP-62 NSCLC and with KM12 colon was more than 100 µM in each case. For the same molecule, the TGI with LOX IMVI melanoma, with M14 melanoma, in the assay on MALME-3M melanoma, in the assay with NCI-H23 lung, in the assay with NCI-H460 lung and with NCI-H522 lung was more than 100 µM in each case. Moreover, the TGI with OVCAR-5 ovarian, in the assay with SF-268 CNS, in the assay on SK-MEL-28 melanoma, with SK-OV-3 ovarian, in the assay on SW-620 colon and in the assay with U251 CNS was more than 100 µM each time. In addition, the TGI with UO-31 renal was more than 100 µM.
`N=C1C(=N)c2ccccc2-c2ccccc21.[Cl-].[Ru+2].c1cnc2c(c1)ccc1cccnc12.c1cnc2c(c1)ccc1cccnc12`: the TGI with A549 NSCLC is more than 100 µM; in the assay with HCC-2998 colon, more than 100 µM; with HCT-116 colon it was 88.8 µM; in the assay on HCT-15 colon it was more than 100 µM; with HOP-62 NSCLC it was more than 100 µM; in the assay on HOP-92 NSCLC, 67.9 µM. The TGI in the assay on KM12 colon was more than 100 µM; with LOX IMVI melanoma it was 75.1 µM; in the assay with M14 melanoma it was 43.3 µM; with MALME-3M melanoma it was 73.6 µM; with NCI-H23 lung, more than 100 µM; in the assay on NCI-H460 lung, more than 100 µM. Further, the TGI in the assay on NCI-H522 lung was 54.7 µM; in the assay with OVCAR-5 ovarian, more than 100 µM; in the assay on SF-268 CNS it was more than 100 µM; with SK-MEL-28 melanoma, 60.7 µM; in the assay with SK-OV-3 ovarian, more than 100 µM; with SW-620 colon, 41.4 µM. The TGI is 73.9 µM in the assay with U251 CNS and more than 100 µM with UO-31 renal.
Consider `CCC(C)C(=O)OC1C(=O)OC2CC3C(C)=CC(=O)C(O)C3(C)C3C4(O)OCC23C1C(C)C4O` (stereo unspecified), for which the TGI with A549 NSCLC was determined as 2.38 µM; with HCC-2998 colon it was 0.227 µM; with HCT-116 colon, 1.4 µM; in the assay with HCT-15 colon, 0.944 µM; in the assay with HOP-62 NSCLC, 0.149 µM; in the assay with HOP-92 NSCLC it was 0.205 µM. Besides, the TGI is 0.133 µM in the assay on KM12 colon; 0.0154 µM with LOX IMVI melanoma; 0.0481 µM in the assay on M14 melanoma; less than 0.021 µM in the assay with MALME-3M melanoma; 0.0431 µM with NCI-H23 lung; 0.659 µM with NCI-H460 lung. Besides, the TGI with NCI-H522 lung was less than 0.0212 µM; in the assay on SF-268 CNS, 0.124 µM; in the assay on SK-MEL-28 melanoma it was 0.106 µM; in the assay with SK-OV-3 ovarian it was 4.11 µM; in the assay on SW-620 colon it was 0.694 µM; in the assay on U251 CNS it was less than 0.0317 µM. The TGI with UO-31 renal came to 0.278 µM.
Consider `NCC(Cl)C(O)c1cnc(N)[nH]1` (stereo unspecified), for which the TGI with A549 NSCLC is 9.28 µM; in the assay with HCC-2998 colon, 5.12 µM; with HCT-116 colon it was more than 34.5 µM; in the assay with HCT-15 colon, more than 63.2 µM; in the assay with HOP-62 NSCLC it was 5.98 µM; in the assay on HOP-92 NSCLC it was 91.4 µM. Moreover, the TGI was 2.96 µM in the assay on KM12 colon; 16.8 µM in the assay on LOX IMVI melanoma; 11.2 µM in the assay with MALME-3M melanoma; 16 µM in the assay with NCI-H23 lung; more than 44.1 µM with NCI-H460 lung; 7.1 µM in the assay on NCI-H522 lung. Further, the TGI with OVCAR-5 ovarian was 20.6 µM; with SF-268 CNS, more than 73.8 µM; in the assay on SK-MEL-28 melanoma it was more than 76.6 µM; in the assay with SK-OV-3 ovarian, more than 44.6 µM; in the assay on SW-620 colon, 3.89 µM; in the assay with U251 CNS, more than 100 µM. Moreover, in the assay on UO-31 renal, the TGI worked out at 6.38 µM.
Regarding `C=C(C)C1CC=C(C)C(=O)C1` (stereo unspecified), the TGI with A549 NSCLC, with HCC-2998 colon, in the assay with HCT-116 colon, with HCT-15 colon, in the assay on HOP-62 NSCLC and in the assay with HOP-92 NSCLC was more than 100 µM each time. Also, the TGI in the assay with KM12 colon, in the assay on LOX IMVI melanoma, in the assay with M14 melanoma, with MALME-3M melanoma, in the assay on NCI-H23 lung and in the assay on NCI-H460 lung was more than 100 µM in each case. In addition, the TGI with NCI-H522 lung, with OVCAR-5 ovarian, with SF-268 CNS, with SK-MEL-28 melanoma, in the assay with SW-620 colon and in the assay on U251 CNS was more than 100 µM throughout. The molecule further yielded a TGI in the assay on UO-31 renal of more than 100 µM.
